Assay results as given in patent US20100040667A1, “METHOD OF TREATING BONE CANCER” (ED. GEISTLICH SOEHNE AG FUER CHEMISCHE INDUSTRIE, priority 2006, published 2010).

What was measured:
[1] = Solubility of taurolidine in water; type: physicochemical; settings: room temperature
Description: The preferred active substances are methylol transfer agents such as taurolidine, taurultam, mixtures thereof or equilibriums thereof. Where taurolidine and/or taurultam is used, its concentration in the aqueous solution absorbed in the gel is preferably 0.5% to 5% by weight, e.g. about 1 to 4%. Where the gel is in the form of a granulate, 2-4% by weight taurolidine and/or taurultam is preferred, more preferably, 4% taurolidine and/or taurultam by weight. Taurolidine is only about 2-3% soluble in water at room temperature, so that at higher concentrations, some material will be present as a suspension of, for example, fine taurolidine crystals.

[2] = tested on: osteosarcoma cell lines SAOS-2 (HTB-85), U2OS (HTB-96), HOS, 143B, LM5, Hu09 WT, Hu09H3, Hu09 L13, MG-63 and MG-63 M8; test: Taurolidine tested against 10 osteosarcoma cell lines; type: cell-based
Method: Taurolidine was tested against 10 oestosarcoma cell lines at concentrations of 50, 100 and 200 uM taurolidine. The cell lines were SAOS-2 (HTB-85), U2OS (HTB-96), HOS, 143B, LM5, Hu09 WT, Hu09H3, Hu09 L13, MG-63 and MG-63 M8.

## O=S1(=O)CCN(CN2CCS(=O)(=O)NC2)CN1 [Taurolidine, taurolidine]
[1]
  soluble in water: 2-3%
[2]; 50, 100 and 200 uM taurolidine
  apoptotic cells: dose-dependent increase in apoptic cells
[2]; 50, 100 and 200 uM taurolidine, 10 cell lines
  inhibition of osteosarcoma cell lines: inhibited all osteosarcoma cell lines tested
[2]; osteosarcoma cell lines
  mechanism of apoptosis: caspase-dependent
